Assay results published in ChEMBL document CHEMBL4393729, “Sleep modulating agents” (Bioorg Med Chem Lett, 2019).

Legend:
[1] = Half life in human at 200 mg; type: ADME
[2] = Half life in human at 5 mg administered three times in a day; type: ADME; details: in vivo
[3] = Half life in human at 150 mg; type: ADME
[4] = Half life in human at 300 mg bid; type: ADME; details: in vivo
[5] = Half life in human at 75 mg; type: ADME
[6] = Half life in human at 1 to 6 mg; type: ADME
[7] = Half life in human at 1 to 2 mg; type: ADME
[8] = Half life in human at 1 to 3 mg; type: ADME
[9] = Half life in human at 1 mg; type: ADME
[10] = Half life in human at 20 mg; type: ADME
[11] = Half life in human up to 3600 mg; type: ADME
[12] = Half life in human; type: ADME
[13] = Half life in human at 20 to 50 mg; type: ADME
[14] = Half life in human at 18 to 36 mg; type: ADME
[15] = Half life in human at 25 to 400 mg
[16] = Half life in human at 8 mg treated 30 mins before bedtime; type: ADME; details: in vivo
[17] = Oral bioavailability in human; type: ADME, organism-based; details: in vivo
[18] = Half life in human at 2250 mg administered as two doses; type: ADME; details: in vivo
[19] = Half life in human at 75 to 300 mg; type: ADME
[20] = Half life in human at 5 to 20 mg; type: ADME
[21] = Half life in human at 5 to 10 mg; type: ADME

Compound `NC(=O)C[S@+]([O-])C(c1ccccc1)c1ccccc1` [(S)-MODAFINIL] has a half-life [1] of 4 h.

`NC[C@H](CC(=O)O)c1ccc(Cl)cc1` [ARBACLOFEN] gave a half-life [2] of 2 to 4 h.

`NC(=O)C[S@@+]([O-])C(c1ccccc1)c1ccccc1` [ARMODAFINIL] showed a half-life [1] of 15 h and a half-life [3] of 15 h.

`CC[C@H]1OC(=O)[C@H](C)[C@@H](O[C@H]2C[C@@](C)(OC)[C@@H](O)[C@H](C)O2)[C@H](C)[C@@H](O[C@@H]2O[C@H](C)C[C@H](N(C)C)[C@H]2O)[C@](C)(OC)C[C@@H](C)C(=O)[C@H](C)[C@@H](O)[C@]1(C)O` [CLARITHROMYCIN] gave a half-life [4] of 5 to 7 h.

`CN(C)CC(c1ccc(O)cc1)C1(O)CCCCC1` (stereo unspecified) [DESVENLAFAXINE] showed a half-life [5] of 11 h.

`CN(C)CC/C=C1\c2ccccc2COc2ccccc21` [E-DOXEPIN] gave a half-life [6] of 8 to 24 h.

For `Clc1ccc2c(c1)C(c1ccccc1)=NCc1nncn1-2` [ESTAZOLAM], the half-life [7] was 10 to 24 h.

`CN1CCN(C(=O)O[C@H]2c3nccnc3C(=O)N2c2ccc(Cl)cn2)CC1` [ESZOPICLONE] gave a half-life [8] of 6 h.

`CCOC(=O)c1ncn2c1CN(C)C(=O)c1cc(F)ccc1-2` [FLUMAZENIL] gave a half-life [9] of 0.6 to 1.2 h.

In the case of `CNCCC(Oc1ccc(C(F)(F)F)cc1)c1ccccc1` (stereo unspecified) [FLUOXETINE], the half-life [10] is reported as 24 to 96 h.

Compound `NCC1(CC(=O)O)CCCCC1` [GABAPENTIN] has a half-life [11] of 5 to 7 h.

With `OC1(c2ccc(Cl)cc2)c2ccccc2C2=NCCN21` (stereo unspecified) [MAZINDOL] the half-life [8] was 10 to 13 h.

`COC(=O)C(c1ccccc1)C1CCCCN1` (stereo unspecified) [METHYLPHENIDATE] gave a half-life [10] of 2 h.

With `NCCC(Oc1ccc(C(F)(F)F)cc1)c1ccccc1` (stereo unspecified) [NORFLUOXETINE] the half-life [12] was 360 to 408 h.

`COc1ccc2[nH]cc(CCNC(=O)c3cc(=O)cco3)c2c1` [PIROMELATINE] gave a half-life [13] of 1 to 3 h.

Compound `Clc1ccc(CCCOCCCN2CCCCC2)cc1` [PITOLISANT] has a half-life [14] of 10 h.

`OCCOCCN1CCN(C2=Nc3ccccc3Sc3ccccc32)CC1` [QUETIAPINE] gave a half-life [15] of 6 h.

Compound `CCC(=O)NCC[C@@H]1CCc2ccc3c(c21)CCO3` [RAMELTEON] has a half-life [16] of 1 to 2.6 h and a bioavailability [17] of 1.8%.

Work on `O=C([O-])CCCO.[Na+]` [SODIUM OXYBATE] yielded a half-life [18] of 0.6 h.

Work on `NC(=O)OC[C@H](N)Cc1ccccc1` [SOLRIAMFETOL] yielded a half-life [19] of 6 to 8 h.

`Cc1ccc(-n2nccn2)c(C(=O)N2CCN(c3nc4cc(Cl)ccc4o3)CC[C@H]2C)c1` [SUVOREXANT] gave a half-life [20] of 9 to 13 h.

`CCC(=O)NC[C@@H]1C[C@H]1c1cccc2c1CCO2` [TASIMELTEON] showed a half-life [10] of 0.9 to 1.7 h.

`COc1ccc(C(CN(C)C)C2(O)CCCCC2)cc1` (stereo unspecified) [VENLAFAXINE] showed a half-life [5] of 5 h.

`Cc1ccc(-c2nc3ccc(C)cn3c2CC(=O)N(C)C)cc1` [ZOLPIDEM] gave a half-life [21] of 1.4 to 4.5 h.
